Common to all, as to format: biochemical
For assay [1], the system named is Tau 4R1N oligomer mixture. The experiment in a line: Cleavage of tau 4R1N by tau 4R2N trimer (SDS-PAGE). To be noted: overnight at 37° C. The procedure: Tau oligomer formation leads to gain of toxic function and loss of function of tau monomer degraded by tau 4R2N trimer activity. Lane 1: Tau 4R2N monomer (0.1 μg); Lane 2: 1× Sample Buffer without reductant; Lane 3: 4R2N Trimer, no 4R1N; Lane 4:Tau 4R1N, no tau 4R2N trimer; Lane 5: Tau 4R2N trimer:tau 4R1N, 1:10; Lane 6: Tau 4R2N trimer:tau 4R1N trimer, 1:100; Lane 7: Tau 4R2N trimer:tau 4R1N 1:10. […] The arrows indicate fragments of tau 4R1N that are generated from tau 4R2N trimer protease activity. For the upper arrow, the fragments have the same apparent MW between the two isoforms, the lower arrow fragments differ with the fragment from tau 4R1N migrating faster than the fragment from tau 4R2N;

Another assay concerns the target T1, Tau 4R2N (Homo sapiens, UniProt P10636).
T1 construct: Stabilization buffer enables production of full length monomer, dimer and trimer for tau protease; made in house; host or cells: E. coli BL21 (DE3) Gold
The experiment in a line: Autoproteolytic activity of purified tau monomer, dimer and trimer (SDS-PAGE). The procedure: This example describes the identification of the autoproteolytic activity of tau oligomers.
Purified recombinant human tau 4R2N was prepared as described in the flow chart. Monomer, dimer and trimer species were purified preparative electrophoresis from a tau 4R2N preparation that had formed oligomers. The electrophoresis buffer contained 0.1% SDS which inhibited the proteolytic activity. Fractions containing the tau species were buffer exchanged into 25 mM Tris-HCl pH 7.4 using and Amicon ultrafiltration device (Merck Millipore, Billerica, Mass.), which led to restoration of tau autoproteolytic activity. Protein concentrations of the preparations were determined using the BCA kit (ThemoFisher Scientific). Samples were run on a pre-cast 4-20% polyacrylamide Tris-HCl gel (BioRad, Hercules, Calif.) without using reductant in order to visualize the disulfide mediated oligomers. The gel was stained with GelCodeBlue Safe (ThermoFisher Scientific, Rockford, Ill.). Lane 1: 5.2 μg of tau 4R2N oligomer standard; Lane 2: 2 microliter of monomer fraction before buffer exchange; Lane 3: 0.5 μg monomer after buffer exchange; Lane 4: […] of dimer fraction before buffer exchange; Lane 5: 0.5 μg dimer after buffer exchange; Lane 6: 20 μL trimer fraction before buffer exchange; Lane 7: 0.5 μg trimer after buffer exchange.
Tau 4R2N undergoes autoproteolytic cleavage (self-cleavage) when it forms disulfide-mediated oligomers upon incubation. Tau autoproteolyic activity co-purified with the dimer and trimer species. The amount of autoproteolytic activity was greatest with trimer which fragmented to the extent where no full size trimer remained after incubation. […] It was also shown that Tau autoproteolytic activity co-purified with dimer and trimer species. […] Full-length trimer digested completely into smaller fragments, and upon incubation, monomer formed an oligomeric ladder that produced a low level of autoproteolytic activity.
(§1) Monomer, Dimer, and Trimer of Tau 441 were purified under non-reducing conditions using continuous-elution electrophoresis. Fractions of each oligomer sample were pooled and buffer exchanged into stabilization buffer using an Amicon spin concentrator with a molecular weight cut-off of 30,000 daltons. 0.35 μg of each sample was incubated overnight at 37° C. while non-incubated control was kept on ice at 4° C. Next day, 2×SDS sample buffer without reductant was added to each sample and loaded onto a 4-20% gradient Tris-HCl Criterion Gel (Bio-Rad, Hercules, Calif.).
as §1, with “This example presents results from a contamination control study of tau protease. Monomer,” for “Monomer,”, “2× sodium dodecyl sulfate” for “2×SDS”
Lane 1—tau oligomer ladder standard; Lane 2—empty; Lane 3—purified monomer no incubation (fraction from purification plate); Lane 4—purified monomer without incubation; Lane 5—purified monomer with incubation; Lane 6—purified dimer without incubation; Lane 7—purified dimer with incubation; Lane 8—purified trimer without incubation; purified trimer with incubation overnight at 37° C. Lanes 3-9 were treated with sample buffer containing β-mercaptoethanol (BME).

Assay [2] concerns Human α-endorphin peptide. The experiment in a line: Cleavage of α-endorphin peptide (HPLC). The conditions noted are these: 20 hrs at 37° C. The procedure: Human α-endorphin peptide [[…](SEQ ID NO:13) (Abbiotech, LLC, San Diego, Calif., USA)] was incubated at 37° C. for 20 hrs with or without […] tau 4R2N trimer protease, and analyzed by reverse phase HPLC (SystemGold® 32Karat™ LC-CE System, Beckman Coulter, Inc., Indianapolis, Ind., USA) using a linear gradient of acetonitrile in 0.1% TFA, 0-60% acetonitrile on an analytical C18 column (12.5 cm×2.1 mm, 5 μm (Supelco). The peptide was hypothesized to be cut by tau protease because it contains Lys-Ser in its sequence which is found at autocatalytic cleavage sites in tau. Two fragment peaks were produced as predicted by tau 4R2N trimer protease. […] The asterisk indicates an artifactual peak unrelated to the peptide;
12 μg of α-endorphin peptide (Anaspec, Fremont, Calif.) was incubated with 1.2 μg of tau 4R/2N trimer in reaction buffer (25 mM Tris-HCl pH 7.4) for 20 hrs at 37° C. Reverse phase HPLC was used to monitor the cleavage of the peptide. […] The asterisk indicates an artifact peak that is derived from the incubation tube.

For the next assay, the system named is tubulin. The experiment in a line: Cleavage of tubulin by tau 4R2N trimer (SDS-PAGE). To be noted: 19.25 hrs at 37° C. The procedure:
In a result not shown, tau 4R2N trimer cut tubulin. In that study, Lane 1—tubulin, no incubation; Lane 2—tubulin incubated without tau; Lane 3—tubulin with tau 4R/2N trimer, no incubation; Lane 4—tubulin incubated with tau 4R2N trimer. […] Incubation of tubulin with tau4R2N trimer led to the formation of tubulin fragments and degradation of tubulin dimer.
Lyophilized tubulin (Cat# TL238, Cytoskeleton Inc.) was suspended in 200 μL buffer for 6 mg/mL solution. Samples were incubated for 19.25 hrs at 37° C. 10 μL 2× Laemmli sample buffer (BME) was added to each sample. Samples heated at 95° C. for 5 min in a thermal cycler with heated lid 5 min prior to loading.

T1 sequence (P10636 1-441 isoform P10636-8): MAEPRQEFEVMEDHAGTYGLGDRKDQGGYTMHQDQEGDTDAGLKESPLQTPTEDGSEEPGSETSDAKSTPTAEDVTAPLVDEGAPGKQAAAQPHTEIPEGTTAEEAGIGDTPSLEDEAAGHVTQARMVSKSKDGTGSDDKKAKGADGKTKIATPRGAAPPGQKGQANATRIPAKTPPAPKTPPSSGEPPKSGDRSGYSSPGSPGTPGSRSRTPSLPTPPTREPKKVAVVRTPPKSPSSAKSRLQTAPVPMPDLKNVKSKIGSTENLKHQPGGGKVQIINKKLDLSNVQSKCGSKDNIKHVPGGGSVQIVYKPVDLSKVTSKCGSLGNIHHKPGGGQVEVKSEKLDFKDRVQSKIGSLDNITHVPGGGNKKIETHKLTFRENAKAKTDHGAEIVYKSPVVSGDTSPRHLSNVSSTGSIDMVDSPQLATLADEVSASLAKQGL

Consider “tau 4R2N trimer: purified disulfide-mediated trimer species of recombinant human tau 4R2N”, for which the “cutting of tau 4R1N” value in assay [1] was “cuts tau (4R1N) monomer and tau dimer”. Further, the “degradation in contamination control study (Example 3)” value with Tau 4R2N (0.35 μg, overnight at 37° C., equal sample volumes from purification) is reported as “preferentially degraded”. Besides, the “autoproteolytic activity (Example 1)” value with Tau 4R2N (after buffer exchange into 25 mM Tris-HCl pH 7.4, incubation at 37° C.) is on record as “greatest”. Moreover, in assay [2], the “cutting of α-endorphin peptide” value is “cuts α-endorphin peptide”. For the same substance, the cutting of tubulin result in the assay on tubulin is reported as “cut tubulin”.

The values above are taken from patent US10597649B2, “Tau protease compositions and methods of use” (Oligomerix, Inc., priority 2011, dated 2020).
